Earlier results in publication PMC10994559 (PLOS Neglected Tropical Diseases, 2024).
Like-named read-outs stand apart in the source and are kept apart here.

Test system: T. brucei BSF proteome
Design: method as in PMID: 32354742
Settings: ref PMID: 32354742, cited from earlier work

For Cc1ccc(C(=O)Nc2ccc(S(=O)(=O)O)c3cc(S(=O)(=O)O)cc(S(=O)(=O)O)c23)cc1NC(=O)c1cccc(NC(=O)Nc2cccc(C(=O)Nc3cc(C(=O)Nc4ccc(S(=O)(=O)O)c5cc(S(=O)(=O)O)cc(S(=O)(=O)O)c45)ccc3C)c2)c1 [suramin], the “suramin ratio (protein abundance)” value (protein 2-oxoglutarate dehydrogenase E1 component, Tb927.11.1450) is listed as 2.73, the “suramin ratio (protein abundance)” value (protein 2-oxoglutarate dehydrogenase E1 component, Tb927.11.9980) is listed as 3.16 and the “suramin ratio (protein abundance)” value (protein ACS1, Tb927.7.6180) is listed as 0.80. The “suramin ratio (protein abundance)” value (protein Aconitase, Tb927.10.14000) was 2.76, the “suramin ratio (protein abundance)” value (protein CIF1 (TOEFAZ1), Tb927.11.15800) was 0.78 and the “suramin ratio (protein abundance)” value (protein CIF3, Tb927.10.13100) was 1.00. The “suramin ratio (protein abundance)” value (protein CIF4, Tb927.10.8240) was 0.84, the “suramin ratio (protein abundance)” value (protein F1 alpha, Tb927.7.7430, Tb927.7.7420) was 1.62 and the “suramin ratio (protein abundance)” value (protein F1 beta, Tb927.3.1380) was 1.57. For the same molecule, the “suramin ratio (protein abundance)” value (protein F1 gamma, Tb927.10.180) was 1.62, the “suramin ratio (protein abundance)” value (protein F1 p18, Tb927.5.1710) was 0.87 and the “suramin ratio (protein abundance)” value (protein FPRC, Tb927.10.6360) was 1.14. The “suramin ratio (protein abundance)” value (protein Fo 8, Tb927.4.3450) was 1.62, the “suramin ratio (protein abundance)” value (protein Fo ATBTB1, Tb927.10.520) was 1.20 and the “suramin ratio (protein abundance)” value (protein Fo ATBTB3, Tb927.11.6250) was 1.77. For the same molecule, the “suramin ratio (protein abundance)” value (protein Fo ATBTB4, Tb927.10.9830) was 0.88, the “suramin ratio (protein abundance)” value (protein Fo ATBTB12, Tb927.5.3090) was 1.92 and the “suramin ratio (protein abundance)” value (protein Fo OSCP, Tb927.10.8030) was 1.11. For the same molecule, the “suramin ratio (protein abundance)” value (protein Fo d, Tb927.5.2930) was 1.32, the “suramin ratio (protein abundance)” value (protein Fo e, Tb927.11.600) was 1.21 and the “suramin ratio (protein abundance)” value (protein Fo f, Tb927.3.1690) was 1.06. For the same molecule, the “suramin ratio (protein abundance)” value (protein Fo i/j, Tb927.3.2880) was 1.67, the “suramin ratio (protein abundance)” value (protein Fo k, Tb927.7.840) was 1.07 and the “suramin ratio (protein abundance)” value (protein Glutamate dehydrogenase, Tb927.9.5900) was 3.30. The “suramin ratio (protein abundance)” value (protein PIP39, Tb927.9.6090) was 2.83, the “suramin ratio (protein abundance)” value (protein PPDK, Tb927.11.6280) was 2.94 and the “suramin ratio (protein abundance)” value (protein Proline dehydrogenase, Tb927.7.210) was 4.55. For the same molecule, the “suramin ratio (protein abundance)” value (protein SAXO, Tb927.8.6240) was 0.98, the “suramin ratio (protein abundance)” value (protein Tb927.1.4280) was 0.91 and the “suramin ratio (protein abundance)” value (protein isocitrate dehydrogenase, Tb927.8.3690) was 1.96. The “suramin ratio (protein abundance)” value (protein mitochondrial malate dehydrogenase, Tb927.10.2560) was 1.99, the “suramin ratio (protein abundance)” value (protein succinyl-CoA ligase beta-chain, Tb927.10.7410) was 1.97 and the “suramin ratio (protein abundance)” value (protein succinyl-CoA synthetase alpha subunit, Tb927.3.2230) was 1.94.
